Entries after “also recorded” stand apart in the source; their conditions may differ.
Tests used:
[1] = tested on: primary human articular chondrocytes; assay: Primary human articular chondrocytes in chondrogenesis and IL1β OA disease model: gene expression; assay type: cell-based; conditions: 100 nM; for MATN3 gene expression, increase vs DMSO / SMOC2 gene expression, increase vs DMSO: N=1
Protocol: (§1) Articular cartilage was isolated, placed into a petri dish containing phosphate buffer saline (PBS) supplemented with 2% Ab/Am (PBS-Ab/Am) and transferred to a laminar flow hood for processing. Cartilage shavings were minced using a sterile scalpel to approximately 1 mm^3 and washed in fresh PBS-Ab/Am by centrifugation at 500×g for 10 minutes. Supernatant was removed and the cartilage pellet resuspended in 5 ml TrypLE™ (Gibco) before incubation at 37° C. for 10 minutes with gentle agitation. Dissociated cartilage fragments were pelleted and washed to remove excess TrypLE and resuspended in DMEM-complete media (DMEM/F12 (Gibco), 1% Ab/Am, 10% FBS) supplemented with 2 mg/ml Collagenase Type II and incubated overnight at 37° C. with gentle agitation. The cartilage digest was pelleted, washed and subsequently resuspended in DMEM-complete. Released cells were counted using a haematocytometer and seeded at 10,000 cells per cm^2. The cultures were incubated at 37° C., 5% CO2 in a humidified incubator for 2 days before refreshing DMEM-complete every 2 days until confluency. For differentiation experiments, primary chondrocytes were differentiated in DMEM/F12 containing 2% FBS, 1% Ab/Am, 1× Insulin-Transferrin-Selenium premix, 10 ng/ml TGFβ3 (primary chondrocyte differentiation media).
(§2) Additional experiments were carried out on primary chondrocytes (equine, canine and human) and ihMSC (TERT immortalised human mesenchymal stromal cell line) to investigate whether CDK8i protects from IL-1β induced degradation when added throughout the entirety of differentiation/IL-1β treatment. Briefly, ihMSCs were seeded at a density of 5×10^4 cells per 10 μl micromass and differentiated in ihMSC chondrogenic media (1% FBS, 1% Ab/Am, 1× Insulin-Transferrin-Selenium premix, 10 μM Y-27632, 100 nM dexamethasone, 50 μg/ml ascorbic acid, 20 ng/ml TGF-β3 (Peprotech)). Primary chondrocytes were seeded at 2.7×10^5 cells per 10 μl micromass and differentiated in primary chondrocyte differentiation media. All micromasses were differentiated for 12 days in the presence of 100 nM […] or DMSO. Some micromasses were processed for gene expression analysis/alcian blue staining on day 12, whilst others were treated with IL-β media (1% FBS, 1% Ab/Am, 10 ng/ml IL-1B) and CDK8i for 48-hours before processing for alcian blue staining/gene expression analysis on day 14 as previously described.

[2] = tested on: primary canine articular chondrocytes; assay: Primary canine articular chondrocytes in chondrogenesis and IL1β OA disease model: gene expression; assay type: cell-based; conditions: 100 nM
Protocol: as §1, §2

[3] = tested on: primary equine articular chondrocytes; assay: Primary equine articular chondrocytes in chondrogenesis and IL1β OA disease model: gene expression; assay type: cell-based; conditions: 100 nM, N=2
Protocol: as §1, §2

[4] = tested on: STR/Ort mouse (spontaneous osteoarthritis); assay: STR/Ort mouse 12 week study: gait analysis; assay type: in vivo; conditions: 5 mg/kg intermittently
Protocol: Following the pilot study, a larger in vivo study using the STR/Ort OA mouse model was conducted. Str/ORT male mice aged 22 weeks (post OA onset) were dosed with either DMSO (N=5) or MSC2530818 5 mg/kg (N=6) intermittently as above for 12 weeks.
On week 11 mice were placed on the DigiGate™ system (MouseSpecifics), a treadmill based video gait analysis software. For Gait analysis, each mouse was placed on the DigiGate™ and allowed to acclimatise for 5 minutes, the belt speed was then set to 13 cm/s for 10 seconds to capture videos of mice whilst walking. Videos were then cropped to 5 seconds of active walking and number of steps per hind limb was counted for each mouse.

[5] = tested on: STR/Ort mouse tibial subchondral bone; assay: STR/Ort mouse 12 week study: microCT of subchondral bone; assay type: in vivo; conditions: 5 mg/kg oral intermittently, 12 weeks, N=3/group
Protocol: Following the pilot study, a larger in vivo study using the STR/Ort OA mouse model was conducted. […]
On week 12 mice were sacrificed and hind limbs were fixed in 4% PFA for 48 hours before storing in 70% EtOH. Micro computed tomography (μCT) scans were carried out on hind limbs to analyse MSC2530818 effects on bone. Samples were wrapped in plastic film before scanning to prevent drying and scanned using the Skyscan 1172F (Bruker). Whole limbs were scanned with X-ray settings 50 kV and 200 μA, using an aluminum 0.5 mm filter, 960 ms exposure time and 5 μm pixel size. Scanned images were reconstructed into tomograms using NRecon 1.7.3.1 (Bruker) using a reconstruction threshold with a minimum value of −1000 and maximum value of 9486 in Hounsfield units and repositioned using Dataviewer 1.5.4 (Bruker). Tibial subchondral bone regions were manually segmented and analysed using CTAn 1.18.4 (Bruker).

Cc1n[nH]c2ncc(C(=O)N3CCC[C@H]3c3ccc(Cl)cc3)cc12 [MSC2530818]
ADAMTS5 gene expression, reduction vs DMSO ([1]; OA disease model (+IL1β), p=0.053): 2.5 fold
MATN3 gene expression, increase vs DMSO ([1]; chondrogenic (−IL1β)): 100 fold
SMOC2 gene expression, increase vs DMSO ([1]; chondrogenic (−IL1β)): 6 fold
MATN3 gene expression, increase vs DMSO ([1]; disease model (+IL1β)): 12 fold
SMOC2 gene expression, increase vs DMSO ([1]; disease model (+IL1β)): 7 fold
ACAN gene expression, increase vs DMSO ([2]; OA disease model (+IL1β), N=1): 3 fold
CNMD gene expression, increase vs DMSO ([2]; OA disease model (+IL1β), N=1): 6 fold
MATN3 gene expression, increase vs DMSO ([2]; OA disease model (+IL1β), N=1): 6 fold
SMOC2 gene expression, increase vs DMSO ([2]; OA disease model (+IL1β), N=1): 2 fold
COL2A1 gene expression, increase vs DMSO ([2]; OA disease model (+IL1β), ns): 13 fold
TIMP4 gene expression, increase vs DMSO ([2]; OA disease model (+IL1β), ns): 1.1 fold
ACAN gene expression, increase vs DMSO ([2]; chondrogenic (−IL1β), N=1): 2 fold
CNMD gene expression, increase vs DMSO ([2]; chondrogenic (−IL1β), N=1): 7 fold
COL2A1 gene expression, increase vs DMSO ([2]; chondrogenic (−IL1β), N=1): 5 fold
MATN3 gene expression, increase vs DMSO ([2]; chondrogenic (−IL1β), N=1): 2 fold
SMOC2 gene expression, increase vs DMSO ([2]; chondrogenic (−IL1β), N=1): 2 fold
TIMP4 gene expression, increase vs DMSO ([2]; chondrogenic (−IL1β), N=1): 4 fold
ADAMTS5 gene expression, reduction vs DMSO ([2]; disease model (+IL1β), ns): 1.4 fold
ADAMTS5 gene expression, reduction vs DMSO ([3]; OA disease model (+IL1β)): 2.7 fold
CNMD gene expression, increase vs DMSO ([3]; OA disease model (+IL1β)): 70 fold
COL2A1 gene expression, increase vs DMSO ([3]; OA disease model (+IL1β)): 11 fold
SMOC2 gene expression, increase vs DMSO ([3]; OA disease model (+IL1β)): 3 fold
ACAN gene expression, increase vs DMSO ([3]; OA disease model (+IL1β), ns): 1.8 fold
MATN3 gene expression vs DMSO ([3]; OA disease model (+IL1β), ns): 2 fold
TIMP4 gene expression, increase vs DMSO ([3]; OA disease model (+IL1β), ns): 1.14 fold
CNMD gene expression, increase vs DMSO ([3]; chondrogenic (−IL1β)): 41 fold
SMOC2 gene expression, increase vs DMSO ([3]; chondrogenic (−IL1β)): 2.3 fold
TIMP4 gene expression vs DMSO ([3]; chondrogenic (−IL1β)): no change
ACAN gene expression, increase vs DMSO ([3]; chondrogenic (−IL1β), ns): 2 fold
COL2A1 gene expression, decrease vs DMSO ([3]; chondrogenic (−IL1β), ns): 1.25 fold
MATN3 gene expression vs DMSO ([3]; chondrogenic (−IL1β), ns): 2 fold
gait symmetry (left/right step ratio) ([4]; week 11): modified step symmetry; also recorded: closer to 1
number of steps per second, rear left limb, increase vs DMSO ([4]; week 11, MSC N=6, DMSO N=5): 1.25 fold
number of steps per second, rear right limb, increase vs DMSO ([4]; week 11, MSC N=6, DMSO N=5): 1.5 fold
subchondral bone surface area vs DMSO [5]: did not observe an alteration; also recorded: no difference
subchondral bone surface density vs DMSO [5]: did not observe an alteration; also recorded: no difference
subchondral bone volume/total volume (BV/TV) vs DMSO [5]: did not observe an alteration; also recorded: no difference
